For assay [1], the target named is T1, récepteur de l'angiotensine II (Rattus norvegicus, UniProt P25095).
T1 construct: une préparation membranaire fraîche obtenue à partir de foie de rat; from tissue; host or cells: rat liver membranes
T1 sequence (P25095 1-359): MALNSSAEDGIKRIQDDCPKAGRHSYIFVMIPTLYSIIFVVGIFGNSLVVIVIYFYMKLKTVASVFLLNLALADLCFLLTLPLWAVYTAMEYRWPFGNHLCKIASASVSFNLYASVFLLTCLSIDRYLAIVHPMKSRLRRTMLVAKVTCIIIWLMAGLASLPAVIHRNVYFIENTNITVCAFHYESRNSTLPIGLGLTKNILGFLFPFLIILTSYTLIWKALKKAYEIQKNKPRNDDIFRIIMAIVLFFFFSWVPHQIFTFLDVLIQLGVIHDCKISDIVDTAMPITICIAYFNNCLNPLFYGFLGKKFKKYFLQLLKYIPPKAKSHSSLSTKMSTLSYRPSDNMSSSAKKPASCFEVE
Briefly: Angiotensin II receptor binding test (displacement of 125I angiotensin II, rat liver membranes). To be noted: fresh rat liver membrane preparation, incubation at 25°C for 150 minutes, read-out: CI50 (the source's name). On the procedure: On utilise une préparation membranaire fraîche obtenue à partir de foie de rat. Le tissu est broyé au polytron dans un tampon Tris 50 mM pH 7,4 le broyage est suivi de 3 centrifugations à 30 000 g 15' avec reprises intermédiaires des culots dans le tampon Tris pH 7,4.
Les derniers culots sont remis en suspension dans un tampon d'incubation (Tris 20 mM, NaCl 135 mM, KCl 10 mM, glucose 5 mM, MgCl2 10 mM, fluorure de phényl méthyl sulfonyle 0,3 mM, bacitracine 0,1 mM, bis(triméthylsilyl) acétamide 0,2 %).
On répartit des fractions aliquotes de 2 ml dans des tubes à hémolyse et ajoute de la ^125I angiotensine II (25 000 DPM/tube) et le produit à étudier. (Le produit est d'abord testé à 3 x 10^-5M en triple). Lorsque le produit testé déplace de plus de 50 % la radioactivité liée spécifiquement au récepteur, il est testé à nouveau selon une gamme de 7 concentrations afin de déterminer la concentration qui inhibe de 50 % la radioactivité liée spécifiquement au récepteur. On détermine ainsi la concentration inhibitrice 50 %).
La liaison non spécifique est déterminée par addition d'un produit de référence soit le produit de l'exemple 94 du brevet européen 0253310 à 10^-5M (en triple). On incube à 25°C pendant 150 minutes, remet au bain-marie à 0°C, 5 minutes, filtre sous vide, rince au tampon Tris pH 7,4 et compte la radioactivité en présence du scintillant Triton. […]
Background: Displacement assays read how much labelled ligand stays bound in the presence of the test substance.

In assay [2] the test system is angiotensine II sur la veine porte isolée. Kind of assay: Angiotensin II antagonist activity on the isolated portal vein. In kind it is cell-based, rats mâles Wistar. To be noted: rat portal vein ring, angiotensin II 3.10^-8M, compound added 15 minutes before stimulation, verapamil 1.10^-6M in the bath; read-out: CI50 (the source's name). The method, then:
La veine porte est prélevée, sur des rats mâles Wistar (350 g environ) (IFFA Crédo Franc) après dislocation cervicale, et mise rapidement dans une solution physiologique (voir ci-dessous) à température ambiante. Un anneau de 1 mm environ est monté dans un bain à organe isolé contenant 20 ml de la solution physiologique suivante (composition en mM : NaCl 118,3 - KCl 4,7 - MgSO4 1,2 - KH2PO4 1,2 - NaHCO3 25 - glucose 11,1 - CaCl2 2,5) le milieu est maintenu à 37°C et oxygéné par un mélange O2 95 %, CO2 5 %. La tension initiale imposée est de 1 g, les anneaux sont laissés au repos pendant 60 à 90 minutes. Afin d'éviter les contractions spontanées, du vérapamil est ajouté au bain d'incubation (1.10^-6M).
A la fin de la période de repos l'angiotensine II (hypertensine Ciba) 3.10^-8M est ajoutée dans le bain d'incubation et laissée au contact de la préparation pendant 1 minute. Cette opération est répétée chaque 30 minutes, le tissu étant lavé 3 ou 4 fois entre deux stimulations à l'angiotensine. Le composé à étudier est introduit dans le bain 15 minutes avant une nouvelle stimulation par l'angiotensine. Des concentrations croissantes de la molécule étant appliquées, une CI50 (concentration qui produit une inhibition de 50 % de la réponse à l'angiotensine) peut être calculée, celle-ci est exprimée en nanomoles.

Structures are written as SMILES. pIC50: −log10 of the molar value.

For `CCCCc1nc2cccc(C(=O)O)c2n1Cc1ccc(-c2ccccc2C(=O)O)cc1` [Exemple 2, Acide 2-butyl 1-[(2'-carboxybiphényl-4-yl)méthyl] 1H-benzimidazole-7-carboxylique], the pIC50 in assay [1] was 7.28; in assay [2], 8.02.

(Values after EP0461039B1, “Benzimidazole derivatives, process and intermediates for their preparation, their use as medicaments and pharmaceutical compositions containing them” (HOECHST MARION ROUSSEL, priority 1990, dated 1991).)
